Patent publication US20210128414A1, “SELF-ASSEMBLED NANOSTRUCTURES AND COMPOSITE MATERIALS USABLE IN DENTAL APPLICATIONS CONTAINING SAME” (Ramot at Tel-Aviv University Ltd., priority 2018, published 2021)

Legend:
S. mutans [1] = assay: Live/Dead (Syto9/Propidium iodide) bacterial viability analysis of nanostructure-treated bacteria; format: cell-based, Streptococcus mutans; settings: after kinetic analysis with nanostructures
Protocol: To directly assess bacterial viability, the bacteria were subjected to Live/Dead viability analysis containing Syto9 (indicating live bacteria) and Propidium iodide (PI) (indicating dead bacteria). Following kinetic analysis, the samples were washed thrice with saline, incubated for 15 minutes in a solution containing Syto9 and Propidium iodide (L13152 LIVE/DEAD BacLight Bacterial Viability Kit, Molecular Probes, OR), and washed with saline again. Fluorescence emission was detected using an ECLIPSE E600 fluorescent microscope (Nikon, Japan).

S. mutans [2] = assay: Bacterial morphology by high-resolution scanning electron microscopy; format: cell-based, Streptococcus mutans; settings: overnight treatment with nanostructures
Protocol: The effect of Fmoc-F5-Phe nanostructures on bacterial morphology was studied using High-Resolution Scanning Electron Microscopy as follows.
Bacterial samples were centrifuged at 5000 rpm for 5 minutes, washed thrice in PBS, and fixed in 2.5% glutaraldehyde in PBS for 1 hour. The samples were then washed thrice in PBS and fixed in 1% OsO4 in PBS for 1 hour, followed by a dehydration series with ethanol. The samples were then left in absolute ethanol for 30 minutes and placed onto glass coverslips, followed by critical point drying and coating with gold. Micrographs were recorded using a JEOL JSM-6700F FE-SEM scanning electron microscope operating at 10 kV. The obtained micrographs shown in FIG. 1I are representative of three independent experiments.

S. mutans [3] = assay: Direct-contact kinetic analysis (direct-contact test) of polymerized composite materials; format: cell-based, Streptococcus mutans; settings: 1 hour direct contact
Protocol: In order to evaluate the antimicrobial capabilities of the resin composite restoratives while simulating its clinical use, a direct-contact test (DCT) was carried out. This spectroscopic microplate reader based test, designed for compounds that are non-diffusible and non-soluble in water, allows measuring the effect of direct contact between the evaluated material and bacterial viability and growth. Four different W/W % samples of the resin composite material were evaluated at 0.25, 0.5, 1 and 2% Fmoc-F5-Phe nano-structure concentrations, and Filtek™ Ultimate Flow with no Fmoc-F5-Phe nano-structures additives, treated in the same manner, served as a control. Streptococcus mutans (S. mutans) was chosen for this evaluation as this strain is commonly found in the human oral cavity and is a significant caries-causing pathogen. Following direct contact of S. mutans bacteria with the Fmoc-F5-Phe incorporated materials the subsequent proliferation of the bacteria, was evaluated by optical density measurements over eighteen hours.
This analysis was carried out as described in Weiss et al. Endod. Dent. Traumatol. 12, 179-84 (1996), with slight modification.
S. mutans bacteria were grown in anaerobic conditions in BHI media for 48 hours and then diluted to an OD600 of 0.6 in BHI. […] were deposited onto inserts (concaved plastic surfaces designed to be suspended in the wells of 96 well-plates) coated on one side with each of the nano-assembly incorporated resin composite restoratives (four different W/W % samples of the resin composite material were evaluated at 0.25, 0.5, 1 and 2% concentrations of each nanostructure) and then incubated for one hour at 37° C. Following incubation […] was added to each well so that the inserts were submerged in the BHI and the plates were sealed to ensure anaerobic conditions. Kinetic growth inhibition was determined by optical density measurements (650 nm) using a Biotek Synergy HT microplate reader.

S. mutans [4] = assay: Live/Dead viability analysis after contact with composite restoratives; format: cell-based, Streptococcus mutans
Protocol: To directly assess bacterial viability, treated and control bacteria were subjected to Live/Dead viability analysis, using the Live/Dead backlight bacterial viability kit and accompanying instructions, as follows. S. mutans bacteria were grown in anaerobic conditions in BHI media for 48 hours and then diluted to an OD600 of 0.6 in BHI. 100 μl of these samples were deposited onto inserts coated on one side with each of the polymeric matrices and then incubated for one hour at 37 degrees. Following incubation […] was added to each well and the plates were sealed to ensure anaerobic conditions. At each time point (initial incubation, 1 hour and 24 hours) samples were taken and washed with saline, incubated for 15 minutes in a solution containing Propidium iodide and Syto9 (L13152 LIVE/DEAD® BacLight™ Bacterial Viability Kit, Molecular Probes, OR, USA) and washed with saline again. Fluorescence emission was detected using an ECLIPSE E600 (Nikon, Japan).

S. mutans [5] = assay: Minimum inhibitory concentration and kinetic growth inhibition analysis of nanostructures; format: cell-based, Streptococcus mutans
Protocol: The antibacterial capabilities of the obtained nanostructures were evaluated against S. mutans via a minimum inhibitory concentration (MIC) analysis and by kinetic growth inhibition analysis, as follows. S. mutans bacteria were grown under anaerobic conditions in brain heart infusion (BHI) medium (BD Difco) for 48 hours and then diluted to OD600 of 0.01 or 0.25 in BHI. Nanostructures samples, at an initial concentration of 8 mM, were added to the bacterial samples in 96-well plates in serial 2-fold dilutions, which were sealed to ensure anaerobic conditions. Kinetic growth inhibition was determined by optical density measurements (650 nm) using a Biotek Synergy HT microplate reader. The minimum inhibitory concentration (MIC) was determined using the microdilution assay, and evaluation of the reduction in colony-forming units was obtained by plating and counting bacterial samples before and after overnight treatment. […] The ability of the nanostructures to inhibit bacterial growth at a higher bacterial load, similar to that of an active infection was also tested. S. mutans cultures were grown until mid-log phase and were then treated with 2 mM samples of the nanostructures.

[6] = Shear-Punch Strength Test of nanostructure-incorporated resin composite restorative; format: physicochemical
Protocol: The effect of the incorporation of peptide nanostructures in the polymerized dental resin composite restorative on the structural integrity of the resin composite restorative was tested. A Shear-Punch Test was carried out on samples incorporating varying weight ratios of Fmoc-Pentafluoro-Phe.
A Shear-Punch Strength Test was performed according to Mount et al., Aust. Dent. 1996; J 41: 116-23. Shear Punch Strength Test. Briefly, a composition comprising the nanostructures dispersed in a pre-polymerized resin composite restorative was placed in 0.8 mm thick wash holders and light-cured to form flat parallel surfaces evenly supported and restrained by the holder. The samples were then placed in an Instron device (model 4502) for punching under a crosshead speed of 0.5 mm per minute. The maximum force applied (Fmax) was calculated as the mean of 10 different samples for each w/w % concentration of the tested nanostructure. Statistical analysis was carried out via one-way analysis of variance and Dunnett's post hoc test.

S. mutans [7] = assay: SYTOX Blue membrane permeation assay; format: cell-based, Streptococcus mutans; settings: nanostructures, 3 hours incubation at 37° C.
Protocol: The effect of Fmoc-F5-Phe nanostructures on bacterial membrane permeation was also supported by a SYTOX Blue membrane permeation assay. SYTOX Blue is a cationic dye that cannot enter an intact cell unless its membrane is disrupted by external compounds. Inside the cell, SYTOX Blue stain binds to intracellular nucleic acids and fluoresces bright blue when excited with 405 nm violet laser light.
S. mutans bacteria were grown under anaerobic conditions in BHI medium (BD Difco) for 48 hours and diluted to 0.1 OD600. Fmoc-F5-Phe or ultrapure water (100 μL) as control was added to 300 μL of bacteria and incubated for 3 hours in 37° C. The bacterial cells were centrifuged for 5 minutes at 3700 rpm and incubated with 1 μM SYTOX blue (Thermo Fisher Scientific) for 30 minutes at 37° C. The samples were washed three times in PBS and examined by confocal microscopy LSM 510, excited at 405 nm (Zeiss, Germany).

[8] = HPLC-based nanostructures release evaluation in sterile saliva; format: physicochemical; settings: 37° C., 2% w/w composite
Protocol: Restorative composites incorporating 4 mg of the Fmoc-F5-Phe nanostructures to a final w/w % of 2% were examined following 24, 48 and 72 hours of incubation at 37° C. in sterile saliva.

[9] = Occlusal fissure stability and optical property analyses; format: physicochemical; settings: 2% w/w composite
Protocol: Occlusal Fissure Stability and Optical Property Analyses were also performed as follows.
Occlusal fissures were made via a diamond bur and then restored utilizing either the 2% nanostructure-containing restorative composites or a control (0%) restorative. The samples were contained for 30 days at 37° C. in sterile PBS. A Spectroshade Micro-MHT dental spectrophotometer normalized to the Vita classical color guide was then utilized to evaluate the color of the tested samples.

3T3 fibroblasts = assay: MTT cell viability analysis of composite restoratives; format: cell-based; settings: nanostructure-incorporated composite versus composite alone; 18 hours, 37° C.
Protocol: (§1) The effect of the incorporation of Fmoc-F5-Phe on the cytotoxicity of the dental composite restoratives was tested. This was carried out by evaluating the effect of each amalgamated composite restorative (containing self-assembled nanostructures as described herein) on the viability of two cell lines; HeLa and 3T3 fibroblasts, using MTT analysis, as follows.
(§2) The 3T3 fibroblast cells and HeLa cells grown in Dulbecco's Modified Eagle's Medium (DMEM) supplemented with 10% fetal calf serum (FBS) (Biological Industries, Israel) were sub-cultured (2×10^5 cells/mL) in 96-well tissue microplates (100 μl per well) and were allowed to adhere overnight at 37° C. Inserts (in quadruplet) coated on one side with each of the nano-assembly incorporated resin composite restoratives were placed into the wells containing the adhered cells. After incubation for 18 hours at 37° C., cell viability was evaluated using the 3-(4,5-dimethylthiazolyl-2)-2,5-diphenyltetrazolium bromide (MTT) assay. Briefly, 10 μL of 5 mg/mL MTT dissolved in PBS was added to each well. After 4 hours incubation at 37° C., 100 μl of the extraction buffer [20% SDS dissolved in a solution of 50% dimethylformamide and 50% DDW (pH 4.7)] were added to each well, and the plates were incubated again at 37° C. for 30 minutes. Finally, color intensity was measured using an ELISA reader at 570 nm. […]

HeLa cells = assay: as above; format: cell-based; settings: nanostructure-incorporated composite versus composite alone; 18 hours, 37° C.
Protocol: as §1, §2

[10] = Diametral Tensile Strength (DTS) test; format: physicochemical; settings: 2% w/w nanostructures in Filtek composite; p>0.155
Protocol: Diametral Tensile Strength (DTS) Test was further performed to verify the difference in tensile properties (tensile strength and stiffness of the specimens characterizing the elasticity of the materials) of the 2% amalgamated material compared to the control (0%), as follows.
Disks (6 mm in diameter, 3 mm in height) of either control resin composite restorative or 2% nanoassembly-incorporated resin composite restorative were prepared in a Teflon mold similar to the specimens used for the punch shear strength. Specimens were loaded up to failure. The linear slope during loading was calculated, indicating the stiffness of the specimen, and the DTS was calculated by: […]
where P is the load at failure (N), D is the specimen diameter (mm), and t is the specimen height (mm).
The specimens were loaded via the above-mentioned loading machine using the same crosshead speed. Statistical analysis was carried out via T-test.

[11] = 0.25-1% w/w nanostructures in Filtek composite
[12] = 2% w/w nanostructures in Filtek composite

## O=C(NC(Cc1c(F)c(F)c(F)c(F)c1F)C(=O)O)OCC1c2ccccc2-c2ccccc21 (stereo not drawn) [Fmoc-F5-Phe, Fmoc-Pentafluorophenylalanline]
S. mutans [1]
  bacterial viability (Live/Dead): significant bacterial cell death
S. mutans [2]
  effect on bacterial morphology: membrane fusing, clumping, and disintegration were abundant
S. mutans [3]; [11]
  bacterial growth inhibition: partially inhibit bacterial growth in a dose dependent manner
S. mutans [3]; [12]
  bacterial growth inhibition: over 95%
S. mutans [4]; [12]
  bacterial viability (Live/Dead): bacterial cell death
S. mutans [4]; composite with nanostructures, 24 hours
  bacterial viability (Live/Dead), persistence of effect: persisted
S. mutans [4]; composite with nanostructures, one hour of treatment, versus Filtek alone
  bacterial viability (Live/Dead): large scale bacterial death
S. mutans [5]; 2 mM nanostructures added to mid-log phase cultures
  bacterial growth inhibition at higher bacterial load: inhibited bacterial proliferation
S. mutans [5]; nanostructures at 2 mM, overnight, early log phase cultures
  reduction in colony-forming units: 7.2 log(10) CFU/mL
S. mutans [5]; nanostructures below 2 mM, overnight
  bacterial growth inhibition at lower concentrations: partially inhibiting growth in a dose-dependent manner
S. mutans [5]; self-assembled nanostructures, cultures started at early log phase, overnight
  concentration at which overnight incubation completely inhibited bacterial growth (MIC analysis): 2000 µM
[6]; 0.25%, 0.5% and 1% w/w nanostructures in Filtek composite, p≥0.144
  Fmax versus control (0%): no statistically significant difference
[6]; 2% w/w nanostructures in Filtek composite, p=0.011
  Fmax, inferior to control (0%) by: 9%
[6]; nanostructures in Filtek composite, data not shown
  effect on stiffness of the specimen: no substantial effect
S. mutans [7]
  bacteria stained with SYTOX Blue (membrane permeation): about 90%
[8]; 24 hours, 4 mg nanostructures
  amount of nanostructures released: 0.9520 micrograms
[8]; 24 hours
  released fraction of initial amount of incorporated nanostructures: less than 0.024%
[8]; 48 hours
  amount of nanostructures released: 0.1805 micrograms
  released fraction of incorporated nanostructures: below 0.0046%
[8]; 72 hours
  amount of nanostructures released: 0.1088 micrograms
[9]; 30-day incubation at 37° C. in sterile PBS
  stability of occlusal fissure restorations: remained intact and stable
[9]; Spectroshade Micro-MHT spectrophotometer
  color (Vita shade) versus control: same Vita shade
3T3 fibroblasts
  effect of incorporation on cell viability (MTT): did not change the effect
HeLa cells
  effect of incorporation on cell viability (MTT): did not change the effect
[10]
  diametral tensile strength and stiffness versus control (0%): No statistically significant differences

## O=C(N[C@@H](Cc1ccccc1)C(=O)O)OCC1c2ccccc2-c2ccccc21 [Fmoc-Phe, Fmoc-phenylalanine]
S. mutans [3]; [11]
  bacterial growth inhibition: inhibited growth in a dose-dependent manner
S. mutans [3]; [12]
  bacterial growth inhibition: 60%
